From the supplement of paper PMC10307832

Key:
Experiment in all cases: relative viability (nuclei count vs DMSO), 5 days (fraction); higher = more cells survive
VX-702 + Dasatinib = compound: NC(=O)c1ccc(N(C(N)=O)c2c(F)cccc2F)nc1-c1ccc(F)cc1F [VX-702] + Cc1nc(Nc2ncc(C(=O)Nc3c(C)cccc3Cl)s2)cc(N2CCN(CCO)CC2)n1 [Dasatinib] (partner 0.075 µM)
Method in brief: (§1)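 Lung cancer cell lines in 1536-well plates got either a single drug or a fixed anchor-drug dose together with five library-drug doses (not always all listed) in √10 steps, by pin tool, on the day after seeding. Nuclei were counted after 5 days, and relative viability is the treated-to-vehicle ratio of nuclei counts. Values are medians of duplicate plates.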

Dabrafenib + Olaparib = compound: CC(C)(C)c1nc(-c2cccc(NS(=O)(=O)c3c(F)cccc3F)c2F)c(-c2ccnc(N)n2)s1 [Dabrafenib] + O=C(c1cc(Cc2n[nH]c(=O)c3ccccc23)ccc1F)N1CCN(C(=O)C2CC2)CC1 [Olaparib] (partner 8 µM)
Method in brief: as §1

Dabrafenib + Pictilisib = compound: CC(C)(C)c1nc(-c2cccc(NS(=O)(=O)c3c(F)cccc3F)c2F)c(-c2ccnc(N)n2)s1 [Dabrafenib] + CS(=O)(=O)N1CCN(Cc2cc3nc(-c4cccc5[nH]ncc45)nc(N4CCOCC4)c3s2)CC1 [Pictilisib] (partner 1 µM)
Method in brief: as §1

Dabrafenib + Bortezomib = compound: CC(C)(C)c1nc(-c2cccc(NS(=O)(=O)c3c(F)cccc3F)c2F)c(-c2ccnc(N)n2)s1 [Dabrafenib] + CC(C)C[C@H](NC(=O)[C@H](Cc1ccccc1)NC(=O)c1cnccn1)B(O)O [Bortezomib] (partner 0.002 µM)
Method in brief: as §1

Cell Line | relative viability (VX-702 + Dasatinib; first compound 0.02 µM) | relative viability (VX-702 + Dasatinib; first compound 0.2 µM) | relative viability (VX-702 + Dasatinib; first compound 0.6325 µM) | relative viability (VX-702 + Dasatinib; first compound 2 µM) | relative viability (Dabrafenib + Olaparib; first compound 0.003 µM) | relative viability (Dabrafenib + Olaparib; first compound 0.009487 µM) | relative viability (Dabrafenib + Olaparib; first compound 0.03 µM) | relative viability (Dabrafenib + Olaparib; first compound 0.09487 µM) | relative viability (Dabrafenib + Olaparib; first compound 0.3 µM) | relative viability (Dabrafenib + Pictilisib; first compound 0.003 µM) | relative viability (Dabrafenib + Pictilisib; first compound 0.009487 µM) | relative viability (Dabrafenib + Pictilisib; first compound 0.03 µM) | relative viability (Dabrafenib + Pictilisib; first compound 0.09487 µM) | relative viability (Dabrafenib + Pictilisib; first compound 0.3 µM) | relative viability (Dabrafenib + Bortezomib; first compound 0.009487 µM) | relative viability (Dabrafenib + Bortezomib; first compound 0.03 µM) | relative viability (Dabrafenib + Bortezomib; first compound 0.09487 µM) | relative viability (Dabrafenib + Bortezomib; first compound 0.3 µM) | relative viability (Dabrafenib + Bortezomib; first compound 0.003 µM)
HCC-366 | 0.786 | 0.601 | 0.598 | 0.22 | 0.381 | 0.337 | 0.271 | 0.329 | 0.39 | 0.161 | 0.183 | 0.0973 | 0.169 | 0.118 | 1.05 | 0.794 | 0.945 | 1.08 | 
HCC-827 | 0.274 | 0.342 | 0.271 | 0.145 | 0.65 | 0.79 | 0.62 |  | 0.671 | 1.07 | 1.13 | 0.89 |  | 1.03 | 1.03 | 1.06 |  | 0.996 | 0.778
HOP-62 | 0.741 | 0.702 | 0.674 | 0.735 |  | 0.297 | 0.388 |  | 0.386 |  | 0.843 | 0.648 | 0.581 | 0.727 | 0.809 | 0.861 | 0.235 | 0.706 | 
IA-LM |  |  |  |  | 0.873 | 0.743 | 0.831 | 0.687 | 0.554 | 0.379 | 0.569 | 0.444 | 0.412 | 0.255 | 0.646 | 0.492 | 0.471 | 0.222 | 0.84
LC-2-ad | 0.724 | 0.581 | 0.619 | 0.901 | 0.69 | 0.668 | 0.709 | 0.647 | 0.698 | 0.489 | 0.137 | 0.408 | 0.455 | 0.497 | 1.03 | 0.969 | 0.918 | 1.09 | 1.04
LCLC-97TM1 | 0.971 | 0.803 | 0.817 | 1.01 |  | 0.317 | 0.472 | 0.262 | 0.35 |  | 0.206 | 0.213 |  | 0.149 | 0.643 | 0.782 | 0.162 | 0.469 | 
LCLC-103H | 0.487 | 0.403 | 0.504 | 0.507 | 0.716 | 0.733 | 0.687 | 0.801 | 0.747 | 0.556 | 0.657 | 0.426 | 0.721 | 0.71 | 1.14 | 0.995 | 1.09 | 1.01 | 1.06
LK-2 | 0.269 | 0.329 | 0.219 | 0.288 | 0.737 | 0.706 |  | 0.498 | 0.796 | 0.552 | 0.614 |  | 0.587 | 0.748 |  |  |  |  | 
LOU-NH91 | 0.572 | 0.553 | 0.576 | 0.364 |  | 0.923 | 0.918 | 0.889 | 0.969 |  | 0.549 | 0.555 | 0.548 | 0.566 | 0.457 | 0.524 | 0.456 | 0.497 | 
LU99A | 0.427 | 0.415 | 0.522 | 0.402 | 0.296 | 0.278 | 0.257 | 0.236 | 0.272 | 0.336 | 0.268 | 0.342 | 0.299 | 0.266 | 0.99 | 1.15 | 1.1 | 0.887 | 1.16
NCI-H358 | 0.146 | 0.144 | 0.156 | 0.16 | 0.647 | 0.697 | 0.546 | 0.538 | 0.406 |  | 0.307 | 0.339 | 0.405 | 0.282 |  |  |  |  | 
NCI-H522 | 0.978 | 0.7 | 0.83 | 0.984 |  | 0.788 | 0.59 | 0.642 | 0.633 |  |  |  |  |  |  |  |  |  | 
NCI-H1299 |  |  |  |  | 0.932 | 0.886 | 0.902 | 0.884 | 0.794 | 0.74 | 0.756 | 0.797 | 0.464 | 0.441 | 0.97 | 1 | 0.993 | 1 | 0.962
NCI-H1395 | 0.414 | 0.413 | 0.415 | 0.447 |  | 0.497 | 0.473 | 0.456 | 0.495 |  | 0.652 | 0.673 | 0.542 | 0.567 |  |  |  |  | 
NCI-H1563 | 0.395 | 0.445 | 0.416 | 0.451 |  |  |  |  |  | 0.591 | 0.628 | 0.6 | 0.633 | 0.583 | 0.897 | 0.687 | 0.898 | 0.929 | 0.855
NCI-H1648 |  |  |  |  | 1.01 | 0.98 |  | 0.523 | 0.765 |  |  |  |  |  |  |  |  |  | 
NCI-H1703 |  |  |  |  | 0.602 | 0.548 | 0.326 | 0.341 | 0.395 | 0.257 | 0.255 | 0.225 | 0.249 | 0.226 | 0.496 | 0.409 | 0.28 | 0.43 | 0.422
NCI-H1793 | 0.412 | 0.392 | 0.382 | 0.366 |  | 1.06 |  | 0.612 | 1.09 | 0.366 | 0.313 | 0.329 | 0.392 | 0.323 |  |  |  |  | 
NCI-H1944 | 0.226 | 0.212 | 0.221 | 0.169 | 0.402 | 0.41 | 0.382 | 0.393 | 0.402 | 0.36 | 0.343 | 0.284 | 0.438 | 0.368 |  |  |  |  | 
NCI-H2170 | 0.532 | 0.654 | 0.544 | 0.74 | 0.653 | 0.605 | 0.544 | 0.5 | 0.625 | 0.251 | 0.394 | 0.293 | 0.311 | 0.323 |  |  |  |  | 
NCI-H2342 | 0.327 | 0.335 | 0.348 | 0.329 | 0.42 | 0.435 | 0.401 | 0.454 | 0.541 |  |  |  |  |  |  |  |  |  | 
SK-MES-1 | 0.374 | 0.389 | 0.342 | 0.398 | 0.582 | 0.671 | 0.627 | 0.567 | 0.393 | 0.363 | 0.416 | 0.269 | 0.376 | 0.377 |  |  |  |  | 
SW 900 | 0.541 | 0.664 | 0.56 | 0.818 |  | 0.93 |  | 0.775 | 0.984 |  |  |  |  |  |  |  |  |  | 
